Experimental data reported in patent EP0537575A1, “Hydrobromide of DC-89 derivative having antitumor activity” (KYOWA HAKKO KOGYO CO., LTD., priority 1991, dated 1993).
In brackets after ≈: the same amount, converted by molar mass.

Key:
HeLaS₃ cells = experiment: Growth inhibition test on HeLaS₃ cells (Neutral Red staining); format: cell-based; conditions: Homo sapiens, HeLa, 72 hours culture, absorbance 550 nm, read-out: HeLaS₃ IC₅₀
Experimental: HeLaS₃ cells suspended in MEM medium containing 10% fetal calf serum and 2 mM glutamine (hereinafter referred to as medium A) to a concentration of 3 × 10⁴ cells/ml were put into wells of a 96-well microtiter plate in an amount of 0.1 ml per well.
After culturing at 37°C overnight in a CO₂-incubator, 0.05 ml of a test sample appropriately diluted with medium A was added to each well.
The cells were further cultured at 37°C for 72 hours in the CO₂-incubator and the culture supernatant was removed. The residue was washed once with phosphate buffered physiological saline (PBS), and 0.1 ml of a medium containing medium A and 0.02% Neutral Red was added to each well, followed by culturing at 37°C for one hour in the CO₂-incubator to stain the cells. After removal of the culture supernatant, the cells were washed once with physiological saline, and the dye was extracted with 0.001N HCl/30% ethanol. Absorbance of the extract at 550 nm was measured with a microplate reader. By comparing the absorbance of the extract of intact cells with those of the cells treated with the test compound at known concentrations, the concentration of the test compound which inhibited growth of the cells by 50% (IC₅₀) was determined.

Sarcoma 180 tumor = experiment: Therapeutic effect against Sarcoma 180 tumor implanted subcutaneously in mice; format: in vivo, ddY-strain mice; conditions: Dose 0.70 mg/kg, intravenously, one day after implantation; tumor volume seven days after implantation
Experimental: Five male ddY-strain mice each weighing 18 to 20 g were used for each group as test animals, and 5 × 10⁵ Sarcoma 180 tumor cells were implanted subcutaneously into the animals at the axilla. One day after the implantation, 0.2 ml of physiological saline containing a test compound at the concentration indicated in Table 1 was intravenously administered to each mouse. T/C [T: average tumor volume (mm³) of the group treated with the test compound, C: that of the control group which received an intravenous administration of 0.2 ml of physiological saline] was determined seven days after the implantation.

[1] = Stability in solution for preparing a freeze-dried preparation (HPLC); format: physicochemical; conditions: for Residual Rate: 1 mg/ml in water with 50 mg lactose and 0.5 mg citric acid per ml, 25°C
Experimental: In 1 ml of distilled water was dissolved 50 mg of lactose and 0.5 mg of citric acid. Compound (I) or Compound (III) was dissolved in the solution to a concentration of 1 mg/ml. The test solution was poured in a vial, and kept in a thermostat at 25°C. The concentration of Compound (I) or Compound (III) in the solution was determined by High Performance Liquid Chromatography (HPLC) with the elapse of time. The concentration of each test compound in the test solution just after the dissolution was defined as 100 %. The residual rate (%) was calculated according to the following equation. [formula]

[2] = system: Micrococcus luteus ATCC9341; experiment: Antibacterial activity, agar dilution method; format: cell-based; conditions: pH 7.0
Experimental: (§1) Minimum inhibitory concentrations (MIC) of Compound (I) against various bacteria were determined by the agar dilution method (pH 7.0).

[3] = system: Staphylococcus aureus 6538-P; experiment: Antibacterial activity, agar dilution method; format: cell-based; conditions: pH 7.0
Experimental: as §1

[4] = system: Staphylococcus epidermidis S1318; experiment: Antibacterial activity, agar dilution method; format: cell-based; conditions: pH 7.0
Experimental: as §1

[5] = system: Bacillus subtilis ATCC6633; experiment: Antibacterial activity, agar dilution method; format: cell-based; conditions: pH 7.0
Experimental: as §1

[6] = system: Staphylococcus aureus 209-P; experiment: Antibacterial activity, agar dilution method; format: cell-based; conditions: pH 7.0
Experimental: as §1

- IC50 (HeLaS₃ cells): 31 nM
- Residual Rate ([1]; Time 0 hr (defined as 100 %)): 100%
- Residual Rate ([1]; Time 3 hr): 99%
- Residual Rate ([1]; Time 6 hr): 98%
- stability in solution (in words) ([1]; compared with Compound (III), results of Table 3): improved stability in solution
- MIC [2]: 25 µg/mL (≈ 35.8 µM)
- MIC [3]: 6.25 µg/mL (≈ 8.95 µM)
- MIC [4]: 6.25 µg/mL (≈ 8.95 µM)
- MIC [5]: 6.25 µg/mL (≈ 8.95 µM)
- MIC [6]: 6.25 µg/mL (≈ 8.95 µM)
Structure (SMILES): COC(=O)c1c(C)[nH]c2c(OC(=O)N3CCN(C)CC3)cc3c(c12)C(CBr)CN3C(=O)c1cc2cc(OC)c(OC)c(OC)c2[nH]1 (centres unmarked) [Compound (I)]
- Sarcoma 180 T/C (Sarcoma 180 tumor): 0.095
